We go through 14 molecules from ChEMBL document CHEMBL6103586, “Optimization of pyrazole/1,2,4-triazole as dual EGFR/COX-2 inhibitors: Design, synthesis, anticancer potential, apoptosis induction and cell cycle analysis” (Eur J Med Chem, 2025).

One assay has as its system A549. In words: Cytotoxicity against human A549 cells assessed as cell growth inhibition measured after 24 hrs by spectrophotometry based MTT assay. Format: functional. The following applies: A549, 24 h.
A further assay relates to HT-29. In words: Cytotoxicity against human HT-29 cells assessed as cell growth inhibition measured after 24 hrs by spectrophotometry based MTT assay. The following applies: HT-29, 24 h. Format: functional. In general terms: Tetrazolium assays rely on reduction of a dye to a coloured formazan, in cell work by metabolically active cells.
Assay [1] has as its system MCF7. In words: Cytotoxicity against human MCF7 cells assessed as cell growth inhibition measured after 24 hrs by spectrophotometry based MTT assay. Format: functional. The following applies: MCF7, 24 h.
Assay [2] deals with Prostaglandin G/H synthase 1 (Homo sapiens, UniProt P23219).
Sequence of Prostaglandin G/H synthase 1 (P23219 whole entry): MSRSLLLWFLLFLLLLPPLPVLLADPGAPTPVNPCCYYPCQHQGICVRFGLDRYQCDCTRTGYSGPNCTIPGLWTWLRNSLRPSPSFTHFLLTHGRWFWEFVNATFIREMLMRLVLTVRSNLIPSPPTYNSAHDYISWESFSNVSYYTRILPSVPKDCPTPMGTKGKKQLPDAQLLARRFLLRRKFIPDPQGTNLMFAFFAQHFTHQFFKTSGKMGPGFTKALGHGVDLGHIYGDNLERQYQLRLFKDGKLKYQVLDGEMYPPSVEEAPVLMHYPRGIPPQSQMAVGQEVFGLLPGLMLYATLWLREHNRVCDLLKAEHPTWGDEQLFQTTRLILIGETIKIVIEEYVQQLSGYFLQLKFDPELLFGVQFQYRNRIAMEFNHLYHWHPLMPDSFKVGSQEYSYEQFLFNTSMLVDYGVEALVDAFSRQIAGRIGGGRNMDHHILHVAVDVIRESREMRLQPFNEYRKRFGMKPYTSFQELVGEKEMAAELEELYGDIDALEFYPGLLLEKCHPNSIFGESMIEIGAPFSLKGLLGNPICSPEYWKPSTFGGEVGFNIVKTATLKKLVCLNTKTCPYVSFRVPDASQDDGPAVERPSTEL
Description: Inhibition of COX-1 (unknown origin) using arachidonic acid as substrate by fluorescence based analysis
Assay [3] has as its system MCF7. In words: Induction of cell cycle arrest in human MCF-7 cells assessed as accumulation of cells at G0/G1 phase cells at 1.207 uM incubated for 24 hrs by propidium iodide based flow cytometry analysis (reference value: 66.25%). In kind it is functional.
Assay [4] has as its system MCF7. The assay is described as follows: Induction of cell cycle arrest in human MCF-7 cells assessed as accumulation of cells at S phase cells at 1.207 uM incubated for 24 hrs by propidium iodide based flow cytometry analysis (reference value: 23.88%). Format: functional. In general terms: In flow cytometry, cells or beads pass a laser one at a time.
For assay [5], the system named is MCF7. In words: Induction of apoptosis in human MCF7 cells assessed as late apoptotic cells at 1.207 uM incubated for 24 hrs by Annexin V-FITC/PI staining based flow cytometry analysis (reference value: 0.11%). Format: functional.
The test system of assay [6] is MCF7. In words: Induction of apoptosis in human MCF7 cells assessed as early apoptotic cells at 1.207 uM incubated for 24 hrs by Annexin V-FITC/PI staining based flow cytometry analysis (reference value: 0.36%). Format: functional.
The subject of assay [7] is MCF7. In words: Induction of apoptosis in human MCF7 cells assessed as total apoptotic cells at 1.207 uM incubated for 24 hrs by Annexin V-FITC/PI staining based flow cytometry analysis (reference value: 2.51%). Format: functional.
Assay [8] deals with Epidermal growth factor receptor (Homo sapiens, UniProt P00533). In words: Inhibition of human wild-type EGFR by Kinase-Glo assay. (In general: Kinase-Glo reads ATP consumption through a luciferase reaction.)
Sequence of Epidermal growth factor receptor (Homo sapiens, UniProt P00533) (P00533 whole entry): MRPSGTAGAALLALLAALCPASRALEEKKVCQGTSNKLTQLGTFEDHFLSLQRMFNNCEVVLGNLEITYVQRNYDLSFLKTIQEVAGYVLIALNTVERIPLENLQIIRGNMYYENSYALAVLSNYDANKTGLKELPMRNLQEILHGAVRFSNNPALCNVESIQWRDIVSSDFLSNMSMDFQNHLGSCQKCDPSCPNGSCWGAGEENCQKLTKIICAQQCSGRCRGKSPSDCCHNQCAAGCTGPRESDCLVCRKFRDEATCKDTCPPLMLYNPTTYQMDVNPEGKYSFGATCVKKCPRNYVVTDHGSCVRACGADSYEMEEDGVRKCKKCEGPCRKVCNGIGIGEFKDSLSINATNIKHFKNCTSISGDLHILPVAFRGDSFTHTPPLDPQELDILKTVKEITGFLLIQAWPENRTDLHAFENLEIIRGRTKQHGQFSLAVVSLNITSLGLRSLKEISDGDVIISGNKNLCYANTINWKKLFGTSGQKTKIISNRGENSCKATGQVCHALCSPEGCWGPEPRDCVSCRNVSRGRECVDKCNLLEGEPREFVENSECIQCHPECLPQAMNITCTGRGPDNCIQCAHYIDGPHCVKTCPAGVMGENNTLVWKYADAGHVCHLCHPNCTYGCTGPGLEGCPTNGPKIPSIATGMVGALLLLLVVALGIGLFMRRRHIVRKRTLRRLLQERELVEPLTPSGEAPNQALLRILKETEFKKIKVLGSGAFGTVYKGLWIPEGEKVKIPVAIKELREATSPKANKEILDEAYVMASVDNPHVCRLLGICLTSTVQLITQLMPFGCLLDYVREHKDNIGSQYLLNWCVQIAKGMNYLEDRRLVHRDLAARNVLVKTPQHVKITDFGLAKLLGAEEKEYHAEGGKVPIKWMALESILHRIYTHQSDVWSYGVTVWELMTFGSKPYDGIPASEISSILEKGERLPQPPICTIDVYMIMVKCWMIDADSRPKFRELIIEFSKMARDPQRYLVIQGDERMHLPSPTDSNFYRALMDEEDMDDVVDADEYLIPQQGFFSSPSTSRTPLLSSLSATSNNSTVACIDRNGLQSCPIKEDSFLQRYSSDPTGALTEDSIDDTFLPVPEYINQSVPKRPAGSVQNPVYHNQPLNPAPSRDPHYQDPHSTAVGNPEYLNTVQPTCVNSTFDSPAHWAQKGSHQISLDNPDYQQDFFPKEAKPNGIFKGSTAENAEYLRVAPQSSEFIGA
Assay [9] addresses Epidermal growth factor receptor (Homo sapiens, UniProt P00533, T790M). In words: Inhibition of human EGFR T790M mutant by Kinase-Glo assay.
Assay [10] concerns MCF7. In words: Induction of apoptosis in human MCF7 cells assessed as necrotic cells at 1.207 uM incubated for 24 hrs by Annexin V-FITC/PI staining based flow cytometry analysis (reference value: 2.04%). Format: functional.
In assay [11] the test system is MCF7. In words: Induction of cell cycle arrest in human MCF-7 cells assessed as accumulation of cells at G2/M phase cells at 1.207 uM incubated for 24 hrs by propidium iodide based flow cytometry analysis (reference value: 9.87%). Format: functional.

Sequence of Epidermal growth factor receptor (Homo sapiens, UniProt P00533, T790M) (P00533 25-1210 T790M limits assumed): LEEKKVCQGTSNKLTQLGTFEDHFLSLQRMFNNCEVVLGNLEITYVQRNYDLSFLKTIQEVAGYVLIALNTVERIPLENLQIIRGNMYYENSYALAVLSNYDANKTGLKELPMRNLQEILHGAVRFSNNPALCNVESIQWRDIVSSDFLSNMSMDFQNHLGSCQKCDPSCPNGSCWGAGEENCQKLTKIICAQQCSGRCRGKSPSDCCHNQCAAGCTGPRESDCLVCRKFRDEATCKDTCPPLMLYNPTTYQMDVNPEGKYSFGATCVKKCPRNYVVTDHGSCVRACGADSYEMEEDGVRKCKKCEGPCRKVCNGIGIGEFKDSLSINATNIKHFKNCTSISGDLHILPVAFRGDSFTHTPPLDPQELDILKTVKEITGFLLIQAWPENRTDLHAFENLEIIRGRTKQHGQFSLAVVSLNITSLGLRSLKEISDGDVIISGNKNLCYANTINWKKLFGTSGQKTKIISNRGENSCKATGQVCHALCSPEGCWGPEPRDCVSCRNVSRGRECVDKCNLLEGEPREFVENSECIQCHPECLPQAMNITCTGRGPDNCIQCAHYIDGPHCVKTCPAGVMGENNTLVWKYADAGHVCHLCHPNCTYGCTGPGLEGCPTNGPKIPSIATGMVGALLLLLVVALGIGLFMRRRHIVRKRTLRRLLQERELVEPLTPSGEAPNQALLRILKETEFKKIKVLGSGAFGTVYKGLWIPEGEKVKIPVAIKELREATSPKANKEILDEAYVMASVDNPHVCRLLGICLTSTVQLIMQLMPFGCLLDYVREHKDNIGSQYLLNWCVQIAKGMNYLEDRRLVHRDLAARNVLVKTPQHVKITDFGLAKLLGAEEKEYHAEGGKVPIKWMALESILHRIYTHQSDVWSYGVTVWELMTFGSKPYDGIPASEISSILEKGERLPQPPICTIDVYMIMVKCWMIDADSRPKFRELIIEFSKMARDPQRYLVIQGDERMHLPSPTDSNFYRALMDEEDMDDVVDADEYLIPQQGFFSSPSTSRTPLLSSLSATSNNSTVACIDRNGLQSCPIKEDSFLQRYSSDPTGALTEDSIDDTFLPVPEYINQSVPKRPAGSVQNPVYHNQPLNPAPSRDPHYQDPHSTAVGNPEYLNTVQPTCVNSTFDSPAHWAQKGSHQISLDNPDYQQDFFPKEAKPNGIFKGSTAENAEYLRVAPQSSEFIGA

The term IC50 denotes the point on the concentration scale where inhibition reaches its midpoint. With `COc1ccc(C=Nn2c(S)nnc2-c2cnn(-c3ccccc3)c2C)cc1OC`, the results for the IC50 in the assay on A549, with HT-29 and in the assay on MCF7 [1] were 18.6 µM, 13.1 µM and 20.2 µM, respectively.
As for `Cc1c(-c2nnc(S)n2N=Cc2ccc(F)cc2)cnn1-c1ccc(S(C)(=O)=O)cc1`, the IC50 came to 20.1 µM in [2]; 14.8 µM with A549; 5.14 µM with HT-29; 1.2 µM with MCF7 [1]; 0.121 µM in assay [8]; 0.076 µM in assay [9]. Besides, the Activity was 47.64% with MCF7 [3]; 13.21% with MCF7 [4]; 9.57% in the assay with MCF7 [5]; 22.81% in the assay with MCF7 [6]; 38.67% in the assay with MCF7 [7]; 6.29% in the assay with MCF7 [10]. Moreover, the Activity in the assay with MCF7 [11] is recorded as 39.15%.
Take `COc1cc(C=Nn2c(S)nnc2-c2cnn(-c3ccc(S(C)(=O)=O)cc3)c2C)cc(OC)c1OC`: the IC50 with A549 amounted to 35.9 µM; in the assay with HT-29 it was 51.5 µM; in the assay with MCF7 [1], 48.5 µM.
The like results for `COc1cc(C=Nn2c(S)nnc2-c2cnn(-c3ccccc3)c2C)cc(OC)c1OC` were, in that order, 17.2 µM, 22.5 µM and 33.2 µM.
As to `COc1cccc(C=Nn2c(S)nnc2-c2cnn(-c3ccccc3)c2C)c1OC`, the IC50 in the assay on A549 was 14.8 µM; in the assay on HT-29, 73.7 µM; in the assay on MCF7 [1], 41.6 µM.
For the molecule `Cc1c(-c2nnc(S)n2N=Cc2ccc([N+](=O)[O-])cc2)cnn1-c1ccc(S(C)(=O)=O)cc1`, the IC50 was 4.89 µM with A549, 13 µM with HT-29 and 4.95 µM in the assay on MCF7 [1].
On to `Cc1c(-c2nnc(S)n2N=Cc2ccc(N(C)C)cc2)cnn1-c1ccc(S(C)(=O)=O)cc1`, for which the IC50 was found to be 31.8 µM in the assay on A549, 13.9 µM in the assay on HT-29 and 10.5 µM in the assay with MCF7 [1].
The matching figures for `Cc1c(-c2nnc(S)n2N=Cc2ccc([N+](=O)[O-])cc2)cnn1-c1ccccc1`: 6.38 µM, 10.6 µM and 12.8 µM.
The like results for `COc1cccc(C=Nn2c(S)nnc2-c2cnn(-c3ccc(S(C)(=O)=O)cc3)c2C)c1OC` were, in that order, 13.5 µM, 28.1 µM and 22 µM.
For the molecule `Cc1c(-c2nnc(S)n2N=Cc2ccc(N(C)C)cc2)cnn1-c1ccccc1`, the IC50 was 36 µM in assay [2]; 3.78 µM in the assay with A549; 2.93 µM with HT-29; 7.46 µM in the assay on MCF7 [1]; 0.423 µM in assay [8]; 0.764 µM in assay [9].
With `COc1ccc(C=Nn2c(S)nnc2-c2cnn(-c3ccc(S(C)(=O)=O)cc3)c2C)cc1OC`, the IC50 in [2] amounted to 14.5 µM; in the assay with A549, 2.38 µM; with HT-29, 9.23 µM; in the assay on MCF7 [1], 5.14 µM; in assay [8] it was 0.216 µM; in assay [9] it was 0.135 µM.
As for `Cc1c(-c2nnc(S)n2N=Cc2ccc(F)cc2)cnn1-c1ccccc1`, the IC50 in the assay with A549 worked out at 7.27 µM; in the assay with HT-29, 12 µM; in the assay on MCF7 [1], 16.9 µM.
`Cc1ccc(-c2cc(C(F)(F)F)nn2-c2ccc(S(N)(=O)=O)cc2)cc1` [CELECOXIB]: the values for the IC50 in the assay on A549, with HT-29 and with MCF7 [1] were 21.7 µM, 41.5 µM and 16.5 µM, respectively.
As to `C=CC(=O)Nc1cc(Nc2nccc(-c3cn(C)c4ccccc34)n2)c(OC)cc1N(C)CCN(C)C` [OSIMERTINIB], the figures for the IC50 in the assay with A549, in the assay with HT-29 and with MCF7 [1] were 1.66 µM, 0.75 µM and 3.45 µM, respectively.
